Like-named read-outs stand apart in the source and are kept apart here.
Legend:
Assay type in all cases: biochemical
[1] = target: Cathepsin B (Homo sapiens, UniProt P07858); assay: Cathepsin B inhibition, fluorogenic peptide substrate kinetic assay (selectivity); settings: ratio of cathepsin B inhibition constant to cathepsin S inhibition constant;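 also: value is the cathepsin B inhibition constant divided by the cathepsin S one, each from kinetic fluorescence readings (ex 380 nm, em 450 nm) of a 10 µM coumarin peptide substrate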
[2] = target: Cathepsin S (Homo sapiens, UniProt P25774); assay: Cathepsin S inhibition, fluorogenic peptide substrate kinetic assay;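 also: cleavage rate of a coumarin-labelled peptide substrate (50 µM) read as fluorescence increase at Ex 380 nm and Em 450 nm, relative to inhibitor-free control reactions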
[3] = target: T1, Cathepsin K (Homo sapiens, UniProt P43235); assay: Cathepsin K inhibition, fluorogenic peptide substrate kinetic assay (selectivity); settings: ratio of cathepsin K inhibition constant to cathepsin S inhibition constant
T1 sequence (P43235 115-329): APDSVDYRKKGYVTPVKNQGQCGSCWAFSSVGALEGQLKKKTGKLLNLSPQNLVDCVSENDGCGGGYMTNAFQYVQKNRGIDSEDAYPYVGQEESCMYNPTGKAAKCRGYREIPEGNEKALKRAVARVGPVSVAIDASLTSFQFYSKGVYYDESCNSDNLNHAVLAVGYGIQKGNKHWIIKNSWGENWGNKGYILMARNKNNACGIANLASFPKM

[4] = Cathepsin S inhibition constant, pH5.5, 20 minutes preincubation at room temperature, read-out: Ki Cat. S

Cathepsin S, sequence (P25774 115-331, species assumed): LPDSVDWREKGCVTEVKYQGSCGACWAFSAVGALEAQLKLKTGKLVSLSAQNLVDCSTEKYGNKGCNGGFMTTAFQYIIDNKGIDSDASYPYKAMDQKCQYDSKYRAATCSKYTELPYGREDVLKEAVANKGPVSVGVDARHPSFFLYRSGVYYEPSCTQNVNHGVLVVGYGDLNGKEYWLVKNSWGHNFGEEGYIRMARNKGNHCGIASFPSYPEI

Selectivity for Cat. S over Cat. B [1] | Ki [2, 4] [nM] | Selectivity for Cat. S over Cat. K [3] | Ki [2] [nM] | SMILES
+ (+, >10) | 1000 to 10000 |  |  | O=C(NCCN1CCc2cc(F)ccc21)[C@H](CC1CCCCC1)OC(=O)N1CCOCC1 [Example 1, Morpholine-4-carboxylic acid (S)-2-cyclohexyl-1-[2-(5-fluoro-2,3-dihydro-indol-1-yl)-ethylcarbamoyl]-ethyl ester]
 | < 100 |  |  | C[C@@H](CNc1ccc(OC(F)(F)F)cc1)NC(=O)[C@H](CSCc1ccccc1)NC(=O)N1CCOCC1 [Example 17, Morpholine-4-carboxylic acid {2-benzylsulfanyl-1-(R)-[1-(S)-methyl-2-(4-trifluoromethoxy-phenylamino)-ethylcarbamoyl]-ethyl}-amide]
++ (++, >100) |  | + (+, >10) | < 100 | O=C(N[C@@H](CCc1ccccc1)CNc1ccc(OC(F)(F)F)cc1)[C@@H](CC(=O)N1CCOCC1)CC1CCCCC1 [Example 23, 2-(R)-Cyclohexylmethyl-4-morpholin-4-yl-4-oxo-N-{3-phenyl-1-(S)-[(4-trifluoromethoxy-phenylamino)-methyl]-propyl}-butyramide]
 |  |  | < 100 | CC(C)[C@@H](CNc1ccc(OC(F)(F)F)cc1)NC(=O)[C@@H](CC(=O)N1CCOCC1)CC1CCCCC1 [Example 24, 2-(R)-Cyclohexylmethyl-N-{2-methyl-1-(S)-[(4-trifluoromethoxy-phenylamino)-methyl]-propyl}-4-morpholin-4-yl-4-oxo-butyramide]
 |  |  | < 100 | CS(=O)(=O)CC[C@@H](CNc1ccc(OC(F)(F)F)cc1)NC(=O)[C@@H](CC(=O)N1CCOCC1)CC1CCCCC1 [Example 28, 2-(R)-Cyclohexylmethyl-N-{3-methanesulfonyl-1-(S)-[(4-trifluoromethoxy-phenylamino)-methyl]-propyl}-4-morpholin-4-yl-4-oxo-butyramide]
 |  |  | < 100 | CS(=O)(=O)CC[C@H](CNc1ccc(OC(F)(F)F)cc1)NC(=O)[C@@H](CC(=O)N1CCOCC1)CC1CCCCC1 [Example 29, 2-(R)-Cyclohexylmethyl-N-{3-methanesulfonyl-1-(R)-[(4-trifluoromethoxy-phenylamino)-methyl]-propyl}-4-morpholin-4-yl-4-oxo-butyramide]
 |  |  | < 100 | CC(C)[C@@H](CNc1ccc(OC(F)(F)F)cc1)NC(=O)[C@H](CCCc1ccccc1)CC(=O)N1CCOCC1 [Example 30, 2-(R)-(2-Morpholin-4-yl-2-oxo-ethyl)-5-phenyl-pentanoic acid {2-methyl-1-(S)-[(4-trifluoromethoxy-phenylamino)-methyl]-propyl}-amide]
 |  |  | < 100 | CC(C)[C@@H](CNc1ccc(OC(F)(F)F)cc1)NC(=O)[C@@H](CC(=O)N1CCOCC1)CC1CCCC1 [Example 31, 2-(R)-Cyclopentylmethyl-N-{2-methyl-1-(S)-[(4-trifluoromethoxy-phenylamino)-methyl]-propyl}-4-morpholin-4-yl-4-oxo-butyramide]
 |  |  | < 100 | CC(C)[C@@H](CNc1ccc(OC(F)(F)F)cc1)NC(=O)[C@H](CCC1CCCC1)CC(=O)N1CCOCC1 [Example 33, 2-(R)-(2-Cyclopentyl-ethyl)-N-{2-methyl-1-(S)-[(4-trifluoromethoxy-phenylamino)-methyl]-propyl}-4-morpholin-4-yl-4-oxo-butyramide]
+++ (+++, >1000) |  |  | < 100 | CC[C@@H](CNc1ccc(OC(F)(F)F)cc1)NC(=O)[C@H](CCc1ccccc1)CC(=O)N1CCOCC1 [Example 38, 4-Morpholin-4-yl-4-oxo-2-(R)-phenethyl-N-{1-(S)-[(4-trifluoromethoxy-phenylamino)-methyl]-propyl}-butyramide]
 |  |  | < 100 | O=C(N[C@@H](CCc1ccccc1)CNc1ccc(OC(F)(F)F)cc1)[C@@H](CC(=O)N1CCOCC1)c1ccccc1 [Example 40, 4-Morpholin-4-yl-4-oxo-2-(S)-phenyl-N-{3-phenyl-1-(S)-[(4-trifluoromethoxy-phenylamino)-methyl]-propyl}-butyramide]
 |  |  | 100 to 1000 | O=C(N[C@H](CNc1ccc(OC(F)(F)F)cc1)c1ccccc1)[C@@H](CC(=O)N1CCOCC1)c1ccccc1 [Example 44, 4-Morpholin-4-yl-4-oxo-2-(S)-phenyl-N-[1-(S)-phenyl-2-(4-trifluoromethoxy-phenylamino)-ethyl]-butyramide]
+++ (+++, >1000) | < 100 | ++ (++, >100) |  | C[C@@H]1CN(C(=O)C[C@@H](CC2CCCCC2)C(=O)N[C@@H](C)CNc2ccc(OC(F)(F)F)cc2)C[C@H](C)O1 [Example 50, 2-(R)-Cyclohexylmethyl-4-(cis-2,6-dimethyl-morpholin-4-yl)-N-[1-(S)-methyl-2-(4-trifluoromethoxy-phenylamino)-ethyl]-4-oxo-butyramide]
+ (+, >10) | 1000 to 10000 |  |  | C[C@@H](CN1CC(C)(C)c2cc(F)ccc21)NC(=O)[C@@H](CC(=O)N1CCOCC1)c1ccc(C(F)(F)F)cc1 [Example 66, N-[2-(5-Fluoro-3,3-dimethyl-2,3-dihydro-indol-1-yl)-1-(S)-methyl-ethyl]-4-morpholin-4-yl-4-oxo-2-(S)-(4-trifluoromethyl-phenyl)-butyramide]
+ (+, >10) | < 100 | + (+, >10) |  | CS(=O)(=O)CC[C@@H](CNc1ccc(OC(F)(F)F)cc1)NC(=O)[C@H](CC1CCCCC1)NC(=O)N1CCOCC1 [Example 74, Morpholine-4-carboxylic acid (2-cyclohexyl-1-(S)-{3-methanesulfonyl-1-(S)-[(4-trifluoromethoxy-phenylamino)-methyl]-propylcarbamoyl}-ethyl)-amide]
+ (+, >10) | < 100 | + (+, >10) |  | CC[C@@H](CNc1ccc(OC(F)(F)F)cc1)NC(=O)[C@H](CC1CCCCC1)NC(=O)N1CCOCC1 [Example 75, Morpholine-4-carboxylic acid (2-cyclohexyl-1(S)-{1-(S)-[(4-trifluoromethoxy-phenylamino)-methyl]-propylcarbamoyl}-ethyl)-amide]
+ (+, >10) | 100 to 1000 | + (+, >10) |  | CC(C)[C@@H](CNc1cccnc1)NC(=O)[C@H](CC1CCCCC1)NC(=O)N1CCOCC1 [Example 76, Morpholine-4-carboxylic acid {2-cyclohexyl-1-(S)-[2-methyl-1-(S)-(pyridin-3-ylaminomethyl)-propylcarbamoyl]-ethyl}-amide]
+ (+, >10) | 1000 to 10000 | + (+, >10) |  | C[C@@H](CNc1nc2ccccc2s1)NC(=O)[C@H](CC1CCCCC1)NC(=O)N1CCOCC1 [Example 78, Morpholine-4-carboxylic acid {1-(S)-[2-(benzothiazol-2-ylamino)-1-(S)-methyl-ethylcarbamoyl]-2-cyclohexyl-ethyl}-amide]
+ (+, >10) | 1000 to 10000 | + (+, >10) |  | C[C@@H](CNc1nc2ccccc2o1)NC(=O)[C@H](CC1CCCCC1)NC(=O)N1CCOCC1 [Example 79, Morpholine-4-carboxylic acid {1-(S)-[2-(benzooxazol-2-ylamino)-1-(S)-methyl-ethylcarbamoyl]-2-cyclohexyl-ethyl}-amide]

From patent US7732449B2, “Inhibitors of cathepsin S” (IRM LLC, priority 2003, dated 2010)
